Results from ChEMBL document CHEMBL1201862, “PubChem BioAssay data set” (2004).
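96-well plates; 48 h exposure; 5 concentrations. Endpoints by linear interpolation between flanking doses. Not reached: highest tested concentration assigned. The concentration for 50% growth inhibition is given as GI50.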 Calls of active or inactive are those of the source. Rule as the data show it: active = GI50 up to about 1.1 µM and inactive = higher.

Tests used:
Assay in all cases: growth of human tumour cells (NCI), 48 h
[1] = system: Malme-3M
[2] = system: ACHN
[3] = system: HT-29
[4] = system: SF-268
[5] = system: M14
[6] = system: Hs-578T
[7] = system: SK-MEL-2
[8] = system: 786-0
[9] = system: UACC-257
[10] = system: OVCAR-4
[11] = system: NCI-H460
[12] = system: NCI-H23
[13] = system: OVCAR-5
[14] = system: OVCAR-8
[15] = system: A498
[16] = system: CAKI-1
[17] = system: MDA-N
[18] = system: SK-MEL-5
[19] = system: K562
[20] = system: KM12
[21] = system: RPMI-8226
[22] = system: HOP-92
[23] = system: LOX IMVI
[24] = system: MCF7
[25] = system: DU-145
[26] = system: MOLT-4
[27] = system: UO-31
[28] = system: SW-620
[29] = system: HCC 2998
[30] = system: CCRF-CEM
[31] = system: A549
[32] = system: SK-OV-3
[33] = system: SNB-19
[34] = system: SF-295
[35] = system: UACC-62
[36] = system: SN12C
[37] = system: NCI-H522
[38] = system: BT-549
[39] = system: NCI/ADR-RES
[40] = system: SR
[41] = system: HOP-62
[42] = system: PC-3
[43] = system: HCT-15
[44] = system: NCI-H226
[45] = system: HCT-116
[46] = system: RXF 393
[47] = system: EKVX
[48] = system: MDA-MB-435
[49] = system: OVCAR-3
[50] = system: IGROV-1
[51] = system: T47D
[52] = system: SNB-75
[53] = system: SK-MEL-28
[54] = system: HL-60
[55] = system: SF-539
[56] = system: TK-10
[57] = system: COLO 205
[58] = system: U-251
[59] = system: MDA-MB-231

Compound: C[C@]12CC[C@H](O)CC1=CC[C@@H]1[C@@H]2CC[C@]2(C)C(=O)/C(=C/c3ccc([N+](=O)[O-])cc3)C[C@@H]12
- GI50 [1]: 20.1 µM (inactive)
- GI50 [2]: 13.2 µM (inactive)
- GI50 [3]: 25.5 µM (inactive)
- GI50 [4]: 6.85 µM (inactive)
- GI50 [5]: 26.8 µM (inactive)
- GI50 [6]: 7.83 µM (inactive)
- GI50 [7]: 17.7 µM (inactive)
- GI50 [8]: 3.43 µM (inactive)
- GI50 [9]: 21.1 µM (inactive)
- GI50 [10]: 8 µM (inactive)
- GI50 [11]: 23.8 µM (inactive)
- GI50 [12]: 18.8 µM (inactive)
- GI50 [13]: 19.2 µM (inactive)
- GI50 [14]: 3.15 µM (inactive)
- GI50 [15]: 13.5 µM (inactive)
- GI50 [16]: 24.1 µM (inactive)
- GI50 [17]: 51.5 µM (inactive)
- GI50 [18]: 16.3 µM (inactive)
- GI50 [19]: 59.6 µM (inactive)
- GI50 [20]: 33.7 µM (inactive)
- GI50 [21]: > 100 µM (inactive)
- GI50 [22]: 9.16 µM (inactive)
- GI50 [23]: 10 µM (inactive)
- GI50 [24]: 32.2 µM (inactive)
- GI50 [25]: 13.4 µM (inactive)
- GI50 [26]: > 100 µM (inactive)
- GI50 [27]: 11 µM (inactive)
- GI50 [28]: 47.4 µM (inactive)
- GI50 [29]: 20 µM (inactive)
- GI50 [30]: > 100 µM (inactive)
- GI50 [31]: 13.3 µM (inactive)
- GI50 [32]: 8.93 µM (inactive)
- GI50 [33]: 10.4 µM (inactive)
- GI50 [34]: 6.65 µM (inactive)
- GI50 [35]: 65 µM (inactive)
- GI50 [36]: 11.2 µM (inactive)
- GI50 [37]: 12.2 µM (inactive)
- GI50 [38]: 23.3 µM (inactive)
- GI50 [39]: 16.2 µM (inactive)
- GI50 [40]: 93.8 µM (inactive)
- GI50 [41]: 5.9 µM (inactive)
- GI50 [42]: 10.4 µM (inactive)
- GI50 [43]: 28.8 µM
- GI50 [44]: 2.96 µM (inactive)
- GI50 [45]: 13.7 µM (inactive)
- GI50 [46]: 8.95 µM (inactive)
- GI50 [47]: 8.91 µM (inactive)
- GI50 [48]: 52.5 µM (inactive)
- GI50 [49]: 15.2 µM (inactive)
- GI50 [50]: 8.73 µM (inactive)
- GI50 [51]: 14.3 µM (inactive)
- GI50 [52]: 3.52 µM (inactive)
- GI50 [53]: 22.1 µM (inactive)
- GI50 [54]: 36.4 µM (inactive)
- GI50 [55]: 6.92 µM (inactive)

Compound: O=C(Nc1ccccc1)N1N=C(c2ccccc2)C1c1ccccc1 (configuration not stated)
- GI50 [1]: 30.5 µM (inactive)
- GI50 [2]: 22 µM (inactive)
- GI50 [3]: 20.5 µM (inactive)
- GI50 [4]: 21.1 µM (inactive)
- GI50 [5]: 20 µM (inactive)
- GI50 [6]: 24.2 µM (inactive)
- GI50 [8]: 16.4 µM (inactive)
- GI50 [9]: 31.8 µM (inactive)
- GI50 [10]: 41.1 µM (inactive)
- GI50 [11]: 42.3 µM (inactive)
- GI50 [12]: 23.3 µM (inactive)
- GI50 [13]: 23.2 µM (inactive)
- GI50 [56]: 36.1 µM (inactive)
- GI50 [14]: 33.8 µM (inactive)
- GI50 [15]: 18.5 µM (inactive)
- GI50 [16]: 30.2 µM (inactive)
- GI50 [17]: 27.4 µM (inactive)
- GI50 [18]: 22.1 µM (inactive)
- GI50 [20]: 29.9 µM (inactive)
- GI50 [21]: 14 µM (inactive)
- GI50 [22]: 23.4 µM (inactive)
- GI50 [23]: 29.9 µM (inactive)
- GI50 [24]: 20.2 µM (inactive)
- GI50 [25]: > 100 µM (inactive)
- GI50 [27]: 15.2 µM (inactive)
- GI50 [57]: 41.7 µM (inactive)
- GI50 [28]: 35.8 µM (inactive)
- GI50 [29]: 31.3 µM (inactive)
- GI50 [31]: 25.3 µM (inactive)
- GI50 [32]: 90.8 µM (inactive)
- GI50 [33]: 27.7 µM (inactive)
- GI50 [34]: 24.3 µM (inactive)
- GI50 [35]: 20.2 µM (inactive)
- GI50 [36]: 48 µM (inactive)
- GI50 [37]: 19.9 µM (inactive)
- GI50 [38]: 23.2 µM (inactive)
- GI50 [39]: 26.4 µM (inactive)
- GI50 [58]: 36.2 µM (inactive)
- GI50 [42]: 18.8 µM (inactive)
- GI50 [43]: 33.8 µM
- GI50 [44]: 18.8 µM (inactive)
- GI50 [45]: 17.9 µM (inactive)
- GI50 [46]: 17.3 µM (inactive)
- GI50 [47]: 40.4 µM (inactive)
- GI50 [49]: 20.7 µM (inactive)
- GI50 [50]: 40.4 µM (inactive)
- GI50 [51]: 59.6 µM (inactive)
- GI50 [52]: 15.8 µM (inactive)
- GI50 [59]: 62.1 µM (inactive)
- GI50 [53]: 53.7 µM (inactive)
- GI50 [54]: 21.9 µM (inactive)
- GI50 [55]: 14.9 µM (inactive)
